Experimental findings from patent US6280773A, “Optimally stabilized microgranule comprising 5-pyrrolyl-2-pyridylmethylsulfinylbenzimidazole derivative” (IL Yang Pharm. Co., Ltd., priority 1998, dated 2001) are described below.

Read-outs that look alike come from different tables or passages of the source.

One data set in a line: physchem. Type of data set: physicochemical. Conditions: for remaining at 360 h: solid, 75% relative humidity, read-out: Content of the Active Ingredient after 15 days. As to the method:
. Then, the content of the active ingredient not decomposed was analyzed using a high performance liquid chromatography. The sample containing only the active ingredient without a stabilizer was used as a control.
<Conditions for High Performance Liquid Chromatography>
Column: μ-Bondapak C18 (4.6×250 mm) or the like
Detector: Absorption photometer in ultraviolet part (wavelength: 280 nm)
Mobile Phase: acetonitrile/phosphate buffer (pH 7.8)=45/55, v/v

The nature of data set [1]: Stability of the microgranule prepared in the presence of a binding agent. Type of data set: physicochemical. Conditions: microgranules of Table 3. As to the method: Microgranules were prepared according to the information represented in the following Table 3 using the stabilizers in a mole ratio of 1:1 with respect to the active ingredient (IY-81149) and using hydroxypropylmethylcellulose as a binding agent. A fluidized-bed granulator (SFC-MINI, FREUND. CO., LTD., Japan) by which the contact with the ambient moisture can be excluded and preparation and dryness of the granule can be simultaneously carried out in a short time was used. That is, the active ingredient and stabilizer were introduced into a chamber of the fluidized-bed granulator in the amounts shown in Table 3. Then, the binding agent-containing solution was sprayed under the influx air temperature (65° C.) of the chamber, during which the mixture of the active ingredient and stabilizer in the chamber was maintained at a temperature of 40° C. or less. The binding agent was used in an amount of 7% by weight with respect to the granule finally obtained, and the solvent water was used in an amount to dilute the binding agent by 15 times. Also, the total amount of the active ingredient and stabilizer to be introduced into the chamber was adjusted to 300 g. The average particle diameter of the microgranule prepared by appropriately controlling the spray rate and temperature was 0.8 mm.

For the compound `[Mg+2].[OH-].[OH-]` [Mg(OH)2, magnesium hydroxide], in “physchem”, the “stabilizing effect upon the active ingredient of the present invention” value is “superior stabilizing effect”. The “stabilizing effect compared with the other stabilizers” value in data set [1] was “superior stabilizing effect”.
With `NCCCC[C@H](N)C(=O)O` [Lysine, lysine], the “stabilizing effect upon the active ingredient of the present invention” value in “physchem” (compared with the other stabilizers (Examples 1 and 2)) is reported as “much less stabilizing effect than magnesium hydroxide”.
Take `COc1ccnc(C[S+]([O-])c2nc3cc(-n4cccc4)ccc3[nH]2)c1C` (centres unmarked) [IY-81149]: the “Content of the Active Ingredient, initial” value (from here on “Content”) is 100.1% in “physchem” (stabilizer not used (control)); 99.6% in the data set “physchem” (with Al(OH)3, mole ratio 1:1); 99.2% in “physchem” (with Arginine, mole ratio 1:1); 100.6% in the data set “physchem” (with Histidine, mole ratio 1:1); 100.5% in the data set “physchem” (with K2 CO3, mole ratio 1:1); 100.0% in “physchem” (with K2 HPO4, mole ratio 1:1). Also, the “Content” value is given as 100.3% in the data set “physchem” (with KHCO3, mole ratio 1:1); 100.6% in the data set “physchem” (with Lysine, mole ratio 1:1); 99.8% in “physchem” (with Mg(OH)2, mole ratio 1:1); 99.4% in the data set “physchem” (with Na2 CO3, mole ratio 1:1); 99.2% in “physchem” (with Na2 HPO4, mole ratio 1:1); 98.9% in “physchem” (with NaHCO3, mole ratio 1:1).
On to `[OH][Al]([OH])[OH]` [Al(OH)3, aluminum hydroxide], for which the “stabilizing effect upon the active ingredient of the present invention” value in “physchem” is on record as “much less stabilizing effect than magnesium hydroxide”.
`COc1ccc2[nH]c([S+]([O-])Cc3ncc(C)c(OC)c3C)nc2c1` (centres unmarked) [Omeprazole, omeprazole, reference compound]: the “order of stabilizing effect of the tested stabilizers” value in the data set “physchem” (mole ratio 1:1, 15 days, 40° C., relative humidity of 75%) was “Na2 HPO4 >NaHCO3 >Mg(OH)2 >arginine>Na2CO3 >K2 HPO4 >Al(OH)3 >histidine>K2 CO3 >lysine>KHCO3”. Besides, the remaining at 360 h in the data set “physchem” (stabilizer not used (control), 40° C., relative humidity of 75%) is 26.7%; in “physchem” (with Al(OH)3, mole ratio 1:1, 40° C., relative humidity of 75%) it was 67.6%; in “physchem” (with Arginine, mole ratio 1:1, 40° C., relative humidity of 75%), 76%; in the data set “physchem” (with Histidine, mole ratio 1:1, 40° C., relative humidity of 75%) it was 67.1%; in the data set “physchem” (with K2 CO3, mole ratio 1:1, 40° C., relative humidity of 75%), 63.9%; in “physchem” (with K2 HPO4, mole ratio 1:1, 40° C., relative humidity of 75%), 70.7%. Besides, the remaining at 360 h worked out at 59.4% in “physchem” (with KHCO3, mole ratio 1:1, 40° C., relative humidity of 75%); 60.3% in “physchem” (with Lysine, mole ratio 1:1, 40° C., relative humidity of 75%); 86.1% in “physchem” (with Mg(OH)2, mole ratio 1:1, 40° C., relative humidity of 75%); 75.3% in “physchem” (with Na2 CO3, mole ratio 1:1, 40° C., relative humidity of 75%); 94% in “physchem” (with Na2 HPO4, mole ratio 1:1, 40° C., relative humidity of 75%); 87.5% in the data set “physchem” (with NaHCO3, mole ratio 1:1, 40° C., relative humidity of 75%). Also, the “Content” value in “physchem” (stabilizer not used (control)) worked out at 99.3%; in the data set “physchem” (with Al(OH)3, mole ratio 1:1), 99.6%; in “physchem” (with Arginine, mole ratio 1:1) it was 99.1%; in the data set “physchem” (with Histidine, mole ratio 1:1), 99.7%; in “physchem” (with K2 CO3, mole ratio 1:1) it was 100.0%; in “physchem” (with K2 HPO4, mole ratio 1:1) it was 99.4%. Further, the “Content” value in “physchem” (with KHCO3, mole ratio 1:1) was found to be 99.9%; in the data set “physchem” (with Lysine, mole ratio 1:1), 99.2%; in the data set “physchem” (with Mg(OH)2, mole ratio 1:1), 100.2%; in the data set “physchem” (with Na2 CO3, mole ratio 1:1), 100.1%; in the data set “physchem” (with Na2 HPO4, mole ratio 1:1), 99.8%; in the data set “physchem” (with NaHCO3, mole ratio 1:1), 99.7%.
